Test results from ChEMBL document CHEMBL4808212 (Bioorg Med Chem Lett, 2021).

Assays:
[1] = biological target: Replicase polyprotein 1ab (Severe acute respiratory syndrome coronavirus 2, UniProt P0DTD1); assay: Inhibition of SARS-CoV-2 3CLpro preincubated for 30 mins followed by addition of (Dabcyl)KTSAVLQSGFRKM(Glu) peptide substrate and measured after […] by FRET assay
[2] = Binding affinity to SARS coronavirus 1 3CL protease using Dabcyl-KTSAVLQ/SGFRKME-Edans as substrate measured by FRET assay; parameters: species or system Severe acute respiratory syndrome-related coronavirus
[3] = Inhibition of SARS coronavirus 1 3CL protease using Dabcyl-KTSAVLQ/SGFRKME-Edans as substrate measured by FRET assay; parameters: species or system Severe acute respiratory syndrome-related coronavirus
[4] = Inhibition of SARS coronavirus 1 3CL protease expressed in Escherichia coli measured by HPLC method; parameters: species or system Severe acute respiratory syndrome-related coronavirus

Row | SMILES | IC50 [1] [nM] | also measured
1 | CCOC(=O)/C=C/[C@H](C[C@@H]1CCNC1=O)NC(=O)[C@H](CC(C)C)NC(=O)[C@@H](NC(=O)OCc1ccccc1)C(C)C | 286 | –
2 | CC(C)C[C@H](NC(=O)OCc1ccccc1)C(=O)N[C@@H](C[C@@H]1CCNC1=O)C(=O)c1nc2ccccc2s1 | > 10000 | –
3 | O=C[C@H](C[C@@H]1CCNC1=O)NC(=O)[C@H](Cc1cccc(F)c1)NC(=O)c1cc2ccccc2[nH]1 | 23 | –
4 | C[C@@H](OC(C)(C)C)[C@H](NC(=O)OCc1ccccc1)C(=O)N[C@@H](CC1CCCCC1)C(=O)N[C@H](C=O)C[C@@H]1CCNC1=O | – | Ki [2]: 53 nM
5 | CC(C)C[C@H](NC(=O)OCc1ccccc1)C(=O)N[C@@H](CC(C)C)C(=O)N[C@@H](C[C@@H]1CCNC1=O)C(=O)C(=O)NC(C)C | 65 | IC50 [3]: 7 nM
6 | COc1cccc2[nH]c(C(=O)N[C@@H](CC(C)C)C(=O)N[C@@H](C[C@@H]3CCNC3=O)C(=O)CO)cc12 [PF-00835231] | – | IC50 [4]: 4 nM
